Laboratory results: PMC5007854, “β-Nitrostyrenes as Potential Anti-leishmanial Agents” (Frontiers in Microbiology, 2016)
Values after ≈ are worked out from the molar mass of the structure shown. Where two headings read alike, the source gives them in different places.

Columns and labels:
Assay type in all cases: cell-based
[1] = test system: Pseudomonas aeruginosa ATCC 27853; assay: Broth microdilution antibacterial susceptibility (MIC/MBC); conditions: Pseudomonas aeruginosa; for MIC: broth microdilution, 35°C, 24 h, read-out: MIC, Pa ATCC 27853; for MBC: ≥99.9% reduction of original inoculum, read-out: MBC, Pa ATCC 27853
Source text: (§1) One reference each of the following species was used for their in vitro susceptibility to β-nitrostyrene in this study: Staphylococcus aureus ATCC 29213, Staphylococcus epidermidis ATCC 14990, Escherichia coli ATCC 25922, Pseudomonas aeruginosa ATCC 27853, Candida albicans ATCC 90028, Candida glabrata ATCC 90030, Aspergillus fumigatus ATCC 16424 and Aspergillus niger ATCC 16404. These strains were procured from the American Type Culture Collection (ATCC, Manassas, VA, USA).
(§2) The antibacterial and antifungal activities of the β-nitrostyrenes were performed by broth microdilution methods as per the guidelines of Clinical and Laboratory Standard Institute (Wayne, [1998], [2008a],[b],[c]) by using Mueller-Hinton broth (MHB; Becton-Dickinson, Cockeysville, MD, USA) supplemented with calcium (25 mg/L) and magnesium (12.5 mg/L) for bacterial strains while as RPMI 1640 medium with L-glutamine and without sodium bicarbonate, buffered to pH 7.0 with 0.165 M 3-(N-morpholino) propanesulfonic acid (MOPS; both from Sigma) was used for fungal strains. Stock solutions were prepared in 100% dimethyl sulfoxide (DMSO; Sigma; distilled water was used for ciprofloxacin), with a final DMSO concentration of 1% (vol. per vol.) and two-fold serial dilutions were prepared in media in amounts of 100 μL per well in 96-well U-bottom microtiter plates (Tarsons, Kolkata, India) to yield twice the final concentration required for testing, which ranged from 64 to 0.12 μg/mL for β-nitrostyrenes and 16 to 0.03 μg/mL for ciprofloxacin as well as amphotericin B. Stock inoculum suspensions of the bacteria, Candida species and Aspergillus species were prepared in sterile normal saline (0.85%) containing 0.05% polysorbate 20 (NST) from overnight (3 to 5-day old for Aspergillus species) strains grown on Trypticase soy agar (TSA; Becton-Dickinson) and potato dextrose agar (Difco Laboratories, Detroit, MI, USA) respectively at 35°C. Inocula were verified for each assay by plating onto agar plates for colony enumeration. These suspensions were further diluted in the respective test medium and a 100 μl volume of this diluted inoculum was added to each well of the plate, resulting in a final inoculum concentration of approximately 5 × 10^5 CFU/mL for bacter1ia, (Wayne, [2008a]) approximately 2.5 × 10^4 CFU/ml for Candida species (Pfaller et al., [2004]) while as 0.4 × 10^4 to 5 × 10^4 CFU/mL for Aspergillus species (Wayne, [2008c]). Untreated growth control, vehicle control (DMSO) and sterility control wells were included for each isolate tested. Ciprofloxacin and amphotericin B served as the standard drug controls for bacterial and fungal strains, respectively. The microtiter plates were incubated at 35°C for 24 h for bacterial strains and 48 h for fungal strains. The plates were read visually and the minimum inhibitory concentration (MIC) was defined as the lowest concentration of test sample that prevented visible growth with respect to the growth control.
(§3) The minimum bactericidal concentration (MBC) and minimum fungicidal concentration (MFC) were determined by plating 100 μl volumes on agar plates from the wells showing no visible growth (clear MIC well). The plates were incubated as described above in MIC measurements. […] All experiments were conducted twice in duplicates on separate occasions with freshly prepared inoculums and stock solutions.

[2] = test system: Staphylococcus aureus ATCC 29213; assay: as above; conditions: for MIC / MBC: Staphylococcus aureus; for MIC: read-out: MIC, Sa ATCC 29213; for MBC: ≥99.9% reduction of original inoculum, read-out: MBC, Sa ATCC 29213
Source text: as §1, §2, §3

[3] = test system: Escherichia coli ATCC 25922; assay: as above; conditions: Escherichia coli; for MIC: broth microdilution, 35°C, 24 h, read-out: MIC, Ec ATCC 25922; for MBC: ≥99.9% reduction of original inoculum, read-out: MBC, Ec ATCC 25922
Source text: as §1, §2, §3

[4] = test system: Staphylococcus epidermidis ATCC 14990; assay: as above; conditions: for MIC / MBC: Staphylococcus epidermidis; for MIC: read-out: MIC, Se ATCC 14990; for MBC: ≥99.9% reduction of original inoculum, read-out: MBC, Se ATCC 14990
Source text: as §1, §2, §3

[5] = test system: Aspergillus niger ATCC 16404; assay: Broth microdilution antifungal susceptibility (MIC/MFC); conditions: Aspergillus niger; for MIC: broth microdilution, 35°C, 48 h, read-out: MIC, An ATCC 16404; for MFC: ≥99.9% reduction of original inoculum, read-out: MFC, An ATCC 16404
Source text: as §1, §2, §3

[6] = test system: Candida glabrata ATCC 90030; assay: as above; conditions: Nakaseomyces glabratus; for MIC: broth microdilution, 35°C, 48 h, read-out: MIC, Cg ATCC 90030; for MFC: ≥99.9% reduction of original inoculum, read-out: MFC, Cg ATCC 90030
Source text: as §1, §2, §3

[7] = test system: Candida albicans ATCC 90028; assay: as above; conditions: Candida albicans; for MIC: broth microdilution, 35°C, 48 h, read-out: MIC, Ca ATCC 90028; for MFC: ≥99.9% reduction of original inoculum, read-out: MFC, Ca ATCC 90028
Source text: as §1, §2, §3

[8] = test system: Aspergillus fumigatus ATCC 16424; assay: as above; conditions: Aspergillus fumigatus; for MIC: broth microdilution, 35°C, 48 h, read-out: MIC, Af ATCC 16424; for MFC: ≥99.9% reduction of original inoculum, read-out: MFC, Af ATCC 16424
Source text: as §1, §2, §3

[9] = ATCC29213, 24 h, broth microdilution, 35°C, 24 h
[10] = ATCC14990, 24 h, broth microdilution, 35°C, 24 h
[11] = broth microdilution, 35°C, 24 h

Compound | MIC ([1]; ATCC27853, 24 h) [µg/mL] | MBC ([1]; ATCC27853) [µg/mL] | MIC [2, 9] [µg/mL] | MBC ([2]; ATCC29213) [µg/mL] | MIC ([3]; ATCC25922, 24 h) [µg/mL] | MBC ([3]; ATCC25922) [µg/mL] | MIC [4, 10] [µg/mL] | MBC ([4]; ATCC14990) [µg/mL] | MIC ([5]; ATCC16404, 48 h) [µg/mL] | MFC ([5]; ATCC16404) [µg/mL] | MIC ([6]; ATCC90030, 48 h) [µg/mL] | MFC ([6]; ATCC90030) [µg/mL] | MIC ([7]; ATCC90028, 48 h) [µg/mL] | MFC ([7]; ATCC90028) [µg/mL] | MIC ([8]; ATCC16424, 48 h) [µg/mL] | MFC ([8]; ATCC16424) [µg/mL] | also measured
O=C(O)c1cn(C2CC2)c2cc(N3CCNCC3)c(F)cc2c1=O [Cipro, Ciprofloxacin, reference compound] | 0.25 (≈ 0.754 µM) | 1 (≈ 3.02 µM) | 0.25 (≈ 0.754 µM) | 0.5 (≈ 1.51 µM) | < 0.03 | < 0.03 | 0.25 (≈ 0.754 µM) | 0.25 (≈ 0.754 µM) |  |  |  |  |  |  |  |  | 
O=[N+]([O-])/C=C/c1ccc(Cl)cc1 [Compound 1, 1-chloro-4-((E)-2-nitrovinyl) benzene] | 32 (≈ 174 µM) | 64 (≈ 349 µM) | 32 (≈ 174 µM) | 32 (≈ 174 µM) | 32 (≈ 174 µM) | 32 (≈ 174 µM) | 16 (≈ 87.1 µM) | 16 (≈ 87.1 µM) | 4 (≈ 21.8 µM) | 4 (≈ 21.8 µM) | 4 (≈ 21.8 µM) | 4 (≈ 21.8 µM) | 32 (≈ 174 µM) | 32 (≈ 174 µM) | 8 (≈ 43.6 µM) | 8 (≈ 43.6 µM) | 
C/C(=C\c1ccc(Cl)cc1)[N+](=O)[O-] [Compound 2, 1-chloro-4-((E)-2-nitroprop-1-enyl) benzene] |  | > 64 |  | > 64 |  | > 64 |  | 32 (≈ 162 µM) |  | > 64 |  | 32 (≈ 162 µM) |  | > 64 |  | > 64 | MIC ([1]; ATCC27853): > 64 µg/mL; MIC ([2]; ATCC29213, broth microdilution, 35°C, 24 h): > 64 µg/mL; MIC ([3]; ATCC25922): > 64 µg/mL; MIC ([4]; ATCC14990, broth microdilution, 35°C, 24 h): 32 µg/mL (≈ 162 µM); MIC ([5]; ATCC16404): 64 µg/mL (≈ 324 µM); MIC ([6]; ATCC90030): 32 µg/mL (≈ 162 µM); MIC ([7]; ATCC90028): > 64 µg/mL; MIC ([8]; ATCC16424): > 64 µg/mL
CC/C(=C\c1ccc(Cl)cc1)[N+](=O)[O-] [Compound 3, 1-chloro-4-((E)-2-nitrobut-1-enyl) benzene] |  | > 64 | 2 to 32 (≈ 9.45 to 151 µM) | 4 (≈ 18.9 µM) |  | > 64 | 2 to 16 (≈ 9.45 to 75.6 µM) | 2 (≈ 9.45 µM) |  | 32 (≈ 151 µM) |  | > 64 |  | > 64 |  | 64 (≈ 302 µM) | MIC, Sa ATCC 29213 [2, 11]: 4 µg/mL (≈ 18.9 µM); MIC, Se ATCC 14990 [4, 11]: 2 µg/mL (≈ 9.45 µM)
CN(C)c1ccc(/C=C/[N+](=O)[O-])cc1 [Compound 4, N,N-dimethyl-4-((E)-2-nitrovinyl) benzenamine] | > 64 | > 64 | > 64 | > 64 | > 64 | > 64 | > 64 | > 64 | 64 (≈ 333 µM) | > 64 | 32 (≈ 166 µM) | 32 (≈ 166 µM) | > 64 | > 64 | 64 (≈ 333 µM) | > 64 | 
C/C(=C\c1ccc(N(C)C)cc1)[N+](=O)[O-] [Compound 5, N,N-dimethyl-4-((E)-2-nitroprop-1-enyl) benzenamine] | > 64 | > 64 | > 64 | > 64 | > 64 | > 64 | > 64 | > 64 | 64 (≈ 310 µM) | > 64 | 32 (≈ 155 µM) | 32 (≈ 155 µM) | > 64 | > 64 | > 64 | > 64 | 
CC/C(=C\c1ccc(N(C)C)cc1)[N+](=O)[O-] [Compound 6, N,N-dimethyl-4-((E)-2-nitrobut-1-enyl) benzenamine] | > 64 | > 64 | > 64 | > 64 | > 64 | > 64 | > 64 | > 64 | 64 (≈ 291 µM) | > 64 | 32 (≈ 145 µM) | 32 (≈ 145 µM) | > 64 | > 64 | > 64 | > 64 | 
COc1ccc(/C=C/[N+](=O)[O-])cc1 [Compound 13, 1-methoxy-4-((E)-2-nitrovinyl) benzene] | > 64 | > 64 | 64 (≈ 357 µM) | 64 (≈ 357 µM) | > 64 | > 64 | 32 (≈ 179 µM) | 32 (≈ 179 µM) | 64 (≈ 357 µM) | 64 (≈ 357 µM) | 32 (≈ 179 µM) | 32 (≈ 179 µM) | 64 (≈ 357 µM) | 64 (≈ 357 µM) | 64 (≈ 357 µM) | > 64 | 
